Test [1] is described as follows: Antiproliferative activity against human SMMC7721 cells after 48 hrs by CCK8 assay. The settings on record: SMMC-7721, 48 h. Type of test: functional, cell-based. In general terms: Tetrazolium dyes change colour on reduction, which living cells bring about.
For test [2], the system named is HeLa. The test is described as follows: Antiproliferative activity against human HeLa cells after 48 hrs by CCK8 assay. Type of test: functional, cell-based.
The test system of test [3] is A549. The test is described as follows: Antiproliferative activity against human A549 cells after 48 hrs by CCK8 assay. The format is functional, cell-based. The following applies: A549, 48 h.
The test system of test [4] is L929. The test is described as follows: Antiproliferative activity against mouse L929 cells after 48 hrs by CCK8 assay. The settings on record: L929, 48 h. The format is cell-based.

The record followed here is ChEMBL document CHEMBL3758108, “Synthesis and antiproliferative evaluation of novel 1,2,4-triazole derivatives incorporating benzisoselenazolone scaffold” (Bioorg Med Chem Lett, 2016).

Where only a bound is given, the exact number is not on record here.

Regarding `CCCCCCSc1n[nH]c(-n2[se]c3ccccc3c2=O)n1`, the half-inhibitory concentration (IC50) in test [1] was 22.4 µM; in test [2], 35.9 µM; in test [3], 20.3 µM; in test [4], 39.3 µM.
The matching figures for `CC(C)Sc1n[nH]c(-n2[se]c3ccccc3c2=O)n1`: 6.01 µM, 34.6 µM, 36.6 µM and 37.1 µM.
In the same order, the values of `Cc1ccccc1CSc1n[nH]c(-n2[se]c3ccccc3c2=O)n1` are 36.2 µM, 6.13 µM, 9.72 µM and 15.6 µM.
Consider `O=c1c2ccccc2[se]n1-c1nc(SCc2ccc(Cl)cc2)n[nH]1`, for which the IC50 in test [1] was 33.9 µM; in test [2] it was 40.9 µM; in test [3], 42.1 µM; in test [4], 39.5 µM.
In the same order, the values of `CCCCSc1n[nH]c(-n2[se]c3ccccc3c2=O)n1` are 16.8 µM, 32.9 µM, 12.5 µM and 30.4 µM.
In the same order, the values of `CCSc1n[nH]c(-n2[se]c3ccccc3c2=O)n1` are 10 µM, 14.1 µM, 39.6 µM and 35.2 µM.
For the molecule `O=c1c2ccccc2[se]n1-c1nc(SCc2ccccc2)n[nH]1`, the IC50 is 32 µM in test [1], more than 50 µM in test [2], more than 50 µM in test [3] and more than 50 µM in test [4].
Turning to `CCCCCSc1n[nH]c(-n2[se]c3ccccc3c2=O)n1`, the 50% inhibitory concentration (IC50) amounted to 31.4 µM in test [1], 30.3 µM in test [2], 21.1 µM in test [3] and 33.5 µM in test [4].
As to `CCCSc1n[nH]c(-n2[se]c3ccccc3c2=O)n1`, the IC50 in test [1] amounted to 6.02 µM; in test [2], 30.4 µM; in test [3], 45.5 µM; in test [4], 31.8 µM.
For the molecule `Cc1ccc(CSc2n[nH]c(-n3[se]c4ccccc4c3=O)n2)cc1`, the IC50 was more than 50 µM in test [1], 34.8 µM in test [2], more than 50 µM in test [3] and more than 50 µM in test [4].
Take `Cc1cccc(CSc2n[nH]c(-n3[se]c4ccccc4c3=O)n2)c1`: the half-maximal inhibitory concentration (IC50) in test [1] was 9.04 µM; in test [2], 42.6 µM; in test [3] it was 12.4 µM; in test [4] it was more than 50 µM.
In the same order, the values of `O=c1c2ccccc2[se]n1-c1nc(SCc2ccc(F)cc2)n[nH]1` are 46.1 µM, more than 50 µM, 36.4 µM and more than 50 µM.
The matching figures for `CC(C)CSc1n[nH]c(-n2[se]c3ccccc3c2=O)n1`: 35 µM, 34.9 µM, 37.8 µM and 33.4 µM.
In the case of `O=c1c2ccccc2[se]n1-c1nc(SCc2ccc([N+](=O)[O-])cc2)n[nH]1`, the half-maximal inhibitory concentration (IC50) stood at 8.91 µM in test [1], 3.94 µM in test [2], 9.14 µM in test [3] and 7.43 µM in test [4].
In the same order, the values of `O=c1c2ccccc2[se]n1CCn1[se]c2ccccc2c1=O` [ETHASELEN] are 10.7 µM, 15.9 µM, 3.26 µM and more than 50 µM.
For `O=c1[nH]cc(F)c(=O)[nH]1` [FLUOROURACIL], the figures for the 50% inhibitory concentration (IC50) in test [2] and in test [4] were 17.2 µM and 2.98 µM, respectively.

The term IC50 denotes the point on the concentration scale where inhibition reaches its midpoint.
